Measurements taken from patent US12391751B2, “Antibody against advanced glycation end products and use thereof” (Bloom Technology Corporation, priority 2018, dated 2025).

Columns and labels:
PB-1 antibody = test: Competitive ELISA of GAL691 and known AGEs against PB-1 (Example 31); type: binding, mouse; conditions: immobilized A-peak-BSA; competitor 0.04 to 2.5 mM; PB-1 0.1 μg/mL
Experimental: Competitive ELISA was conducted using the reagents described in Example 13. A solution of A-peak-BSA prepared into 1 μg/mL in a coating solution was added at 100 μL/well to a 96-well microtiter plate (Costar) and incubated overnight at 4° C.
(§1) Each well after the immobilization treatment was washed three times with a washing solution (300 μL), and a blocking solution (200 μL) was added thereto and left at room temperature for 1 hour.
GAL691 (prepared in Example 16), GLAP (prepared in Example 12), Lys-hydroxy-triosidine (prepared in Example 17), GA-pyridine (prepared in Example 28), GOLD (prepared in Example 29), and Z-Lys were each dissolved in a phosphate buffer solution (0.2 M, pH 7.4) to prepare a 100 mM solution. Then, a 10 mM solution was prepared by dilution 10-fold with a diluting solution containing BSA (1 mg/mL, FUJIFILM Wako Pure Chemical Corp.). Sample solutions of 4-fold dilution series of 0.04, 0.16, 0.63, and 2.5 mM were further prepared with a diluting solution containing a 10% (v/v) phosphate buffer solution and 1 mg/mL BSA. Ten-fold dilutions of a phosphate buffer solution with a diluting solution containing 1 mg/mL BSA were prepared as blank solutions containing no sample in the same way as above. A 0.1 μg/mL solution of the PB-1 antibody was prepared with a diluting solution containing 1 mg/mL BSA.
Each well treated with the blocking solution was washed three times with a washing solution (300 μL), and the sample solutions of 4-fold dilution series (50 μL each) and the PB-1 antibody dilution solution (50 μL) were added thereto, stirred with a plate mixer for 2 minutes, and then incubated at room temperature for 1 hour.
After the competitive reaction, each well was washed three times with a washing solution (300 μL), and peroxidase-labeled anti-mouse IgG (H+L) polyclonal antibody, F(ab′)2 fragment (Kirkegaard & Perry Laboratories, Inc.) diluted into 0.05 μg/mL with a diluting solution containing 1 mg/mL BSA was added at 100 μL/well and left standing at room temperature for 1 hour.
After washing three times with a washing solution (300 μL), a substrate solution (ELISA POD substrate TMB kit (Popular), Nacalai Tesque, Inc.) was added at 100 μL/well and incubated at room temperature for 10 minutes under light shielding. Then, color development was terminated by the addition of 2 N sulfuric acid (50 μL).
Absorbance was measured at a dominant wavelength of 450 nm and a sub-wavelength of 650 nm with a microplate reader (Cytation 5, BioTek Instrument Inc.), and the absorbance at the sub-wavelength was subtracted from the absorbance at the dominant wavelength. Change in the absorbance of GAL691, GLAP, Lys-hydroxy-triosidine, GA-pyridine, GOLD, and Z-Lys was indicated as relative values to the absorbance of the blank solution.

[1] = system: POD-labeled novel monoclonal antibody (SJ-5); test: Competitive ELISA of GAL13, GLAP, Z-Lys-OH against SJ-5 (Example 13); type: binding, mouse; conditions: immobilized Glycer-AGEs-BSA; competitor 0.0063 to 2 mg/mL
Experimental: A solution of BSA containing AGEs derived from glyceraldehyde (stock solution: 10 mg/mL PBS solution) prepared into 1 μg/mL in a coating solution was added at 100 μL/well to a 96-well microtiter plate (COSTAR) and incubated overnight at 4° C.
as §1
GAL13 (prepared in Example 2), GLAP (prepared in Example 12), and Z-Lys-OH (Tokyo Chemical Industry Co., Ltd.) were each dissolved in a phosphate buffer solution (0.2 M, pH 7.4) to prepare a 20 mg/mL solution. Sample solutions of 2-fold dilution series from 0.0063 to 2 mg/mL (6 points) were further prepared by dilution with a diluting solution. A POD-labeled novel monoclonal antibody (SJ-5) solution was diluted 16,000-fold with a diluting solution containing BSA (1 mg/mL, FUJIFILM Wako Pure Chemical Corp.) to prepare a POD-labeled SJ-5 antibody dilution solution. […]
Absorbance was measured at a dominant wavelength of 450 nm and a sub-wavelength of 650 nm with a microplate reader (Cytation 5, BioTek Instrument Inc.), and the absorbance at the sub-wavelength was subtracted from the absorbance at the dominant wavelength.

α-SMA = test: Endothelial-to-mesenchymal transition inhibition test, real-time PCR (Example 15); type: cell-based, human; conditions: HUVEC; β-actin internal standard; 8 hours
Experimental: (§2) 10 μL of Glycer-AGEs-BSA (10 mg/mL) prepared in Example 1, PBS, and 90 μL of SJ-5 (10 mg/mL) or a control antibody (10 mg/mL) were added to a 1.5 mL tube (Watson). Alternatively, 90 μL of a PBS solution of control BSA (10 mg/mL) was added. These solutions were left standing at room temperature for 10 minutes. Then, a supernatant was recovered by centrifugation at 14000 rpm for 15 minutes using a centrifuge (Thermo Fisher Scientific Inc.).
(§3) HUVEC was cultured in a 10 cm dish using 10 mL of a medium for HUVEC.
(§4) The cultured HUVEC was washed with 10 mL of PBS. Then, 1 mL of trypsin-EDTA was added thereto and left standing at room temperature for 3 minutes. HUVEC thus left standing was confirmed to be detached from the dish, and trypsin-EDTA was neutralized by the addition of 10 mL of a medium for HUVEC. After the neutralization, the whole amount was transferred to a 50 mL tube and centrifuged at 1500 rpm for 3 minutes using a centrifuge.
(§5) After the centrifugation, the supernatant was discarded, and precipitated cells were resuspended by the addition of 1 mL of a medium for HUVEC. A 10 μL aliquot from the resuspension was mixed with 10 μL of Trypan Blue, and 10 μL thereof was added to a counting chamber. Then, the number of live cells was counted in Auto Cell Counter EVE. The cell suspension was diluted into 2.5×10^5 cells/mL with a medium for HUVEC and inoculated at 400 μL/well to the Matrigel prepared in (1). After the inoculation, each reaction solution prepared in (2) was added at 100 μL/well, followed by culture for 8 hours in a CO2 incubator.
(§6) Each well was washed three times with 1 mL of PBS, and Cell Recovery Solution (Corning Inc.) was added at 500 μL/well.
(§7) The cells and the Matrigel matrix were scraped off using Blue Chip (Watson), recovered into a 1.5 mL tube, and transferred to the 1.5 mL tube after rinsing of each well again with 500 μL of Cell Recovery Solution. The 1.5 mL tube was mixed by inversion five times and then left standing on ice for 1 hour to confirm that the Matrigel matrix was completely degraded. After the Matrigel matrix degradation, a supernatant was discarded by centrifugation at 800 rpm at 4° C. Precipitated cells were gently suspended in 1 mL of ice-cooled PBS and centrifuged at 800 rpm at 4° C. to discard a supernatant. Precipitated cells were gently suspended again in 1 mL of ice-cooled PBS and centrifuged at 800 rpm at 4° C.
(§8) 125 μL of CellAmp Washing Buffer attached to the kit was added to the cells precipitated by centrifugation, and mixed. […]
(§9) After the addition, real-time PCR was performed with QuantStudio™ 12K Flex real-time PCR system (Thermo Fisher Scientific Inc.) to quantify gene expression levels. […]

CD31 = test: as above; type: cell-based, human; conditions: HUVEC; β-actin internal standard; 8 hours
Experimental: as §2, §3, §4, §5, §6, §7, §8, §9

HUVEC = test: Neutralization test of vascular endothelial cell lumen formation inhibition using PB-1 (Example 35); type: cell-based, human; conditions: Matrigel matrix; 8-hour culture
Experimental: Matrigel matrix was prepared by the same operation as in Example 14.
10 μL of Glycer-AGEs-BSA (10 mg/mL) prepared in Example 1, 10 μL of phosphate-buffered saline (PBS, FUJIFILM Wako Pure Chemical Corp.), and 90 μL of the PB-1 antibody (10 mg/mL) or a control antibody (10 mg/mL) were added to a 1.5 mL tube (Watson) and left standing at room temperature for 10 minutes. Then, a supernatant was recovered by centrifugation at 14000 rpm for 15 minutes using a centrifuge (Thermo Fisher Scientific Inc.).
(3) A lumen formation inhibition test was conducted by the same operation as in Example 14. As shown in the drawing, HUVEC was confirmed to form a lumen in the Matrigel matrix in the control BSA addition group. […] Furthermore, this inhibition of lumen formation was neutralized by the reaction solution of PB-1.

[2] = system: HUVEC (human umbilical vein endothelial cells); test: Neutralization test of vascular endothelial cell lumen formation inhibition (Example 14); type: cell-based; conditions: Matrigel matrix; 8 hours culture
Experimental: Matrigel matrix (Corning Inc.) was placed in a refrigerator and thawed overnight. The thawed Matrigel matrix was added at 300 μL/well to a 12-well plate (Corning Inc.) and hardened by still standing at 37° C. for 1 hour in a CO2 incubator (ESPEC Corp.).
10 μL of Glycer-AGEs-BSA (10 mg/mL) prepared in Example 1 or 10 μL of control BSA (10 mg/mL), phosphate-buffered saline (PBS, FUJIFILM Wako Pure Chemical Corp.), and 90 μL of SJ-5 (10 mg/mL) or a control antibody (10 mg/mL) were added to a 1.5 mL tube (Watson) and left standing at room temperature for 10 minutes. Then, a supernatant was recovered by centrifugation at 14000 rpm for 15 minutes using a centrifuge (Thermo Fisher Scientific Inc.).
HUVEC (human umbilical vein endothelial cells, National Institutes of Biomedical Innovation, Health and Nutrition, JCRB cell bank) was cultured in a 10 cm dish (Corning Inc.) using 10 mL of a medium for HUVEC (KAC Co., Ltd.).
The cultured HUVEC was washed with 10 mL of PBS. Then, 1 mL of trypsin-EDTA (FUJIFILM Wako Pure Chemical Corp.) was added thereto and left standing at room temperature for 3 minutes. […]
After the centrifugation, the supernatant was discarded, and precipitated cells were resuspended by the addition of 1 mL of a medium for HUVEC. […] Then, the number of live cells was counted in Auto Cell Counter EVE (NanoEnTek Inc.). […]

`CC(=O)NC(CCCCn1cc[n+](CCCCC(NC(C)=O)C(=O)O)c1)C(=O)O` (stereo not shown) [GOLD] was tested, and the “change in absorbance relative to blank (competition for PB-1 binding)” value (“change in absorbance relative to blank” for short) (PB-1 antibody) was “no reduction in absorbance was observed”.

With `CC(=O)NC(CCCC[n+]1ccc(CO)c(O)c1)C(=O)O` (stereo not shown) [GA-pyridine] the “change in absorbance relative to blank” value (PB-1 antibody) was “no reduction in absorbance was observed”.

For `CC(=O)N[C@@H](CCCC[n+]1cc(O)cc(CO)c1)C(=O)O` [GLAP], the “change in absorbance (competition for SJ-5 binding)” value [1] was “reduction in absorbance was observed for neither” and the “change in absorbance relative to blank” value (PB-1 antibody) was “no reduction in absorbance was observed”.

`NCCCC[C@H](NC(=O)OCc1ccccc1)C(=O)O` [Z-Lys-OH, N^α-Carbobenzoxy-L-lysine] was tested, and the “change in absorbance (competition for SJ-5 binding)” value [1] was “reduction in absorbance was observed for neither” and the “change in absorbance relative to blank” value (PB-1 antibody) was “no reduction in absorbance was observed”.

With “Glycer-AGEs-BSA: bovine serum albumin containing AGEs derived from glyceraldehyde [reference compound]” the “expression level of α-SMA” value (α-SMA) was “increased”, the “expression level of CD31” value (CD31) was “decreased” and the “effect on lumen formation of HUVEC” value (HUVEC) was “inhibited lumen formation”. For the same compound, the “effect on lumen formation of HUVEC” value [2] was “inhibited lumen formation”.
